“And” between values parts separate entries of the source, which are not always exact repeats. Identical values can stand only once. Toxic doses and inconclusive results are not listed.

From PubChem BioAssay AID330 (DTP/NCI, 2004) come the findings set out here.

This assay deals with P388 leukemia ip, CD2F1 mice, survival T/C. The assay is described as follows: NCI In Vivo Anticancer Drug Screen. Data for tumor model P388 Leukemia (intraperitoneal) in CD2F1 (CDF1) mice. Particulars: endpoint: median survival time, higher = longer survival. In outline: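 Mice carrying the transplanted tumor received test compound or vehicle. Survival was recorded in each group, and the value is the treated-group measurement divided by that of the vehicle-treated control group.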

Setting [1] is: dose: 50.0 mg/kg/injection, schedule: Q01DX009 (ip), vehicle: saline with Tween-80.
[2] abbreviates: dose: 100.0 mg/kg/injection, schedule: Q01DX009 (ip), vehicle: saline with Tween-80.
Setting [3] is: dose: 200.0 mg/kg/injection, schedule: Q01DX009 (ip), vehicle: saline with Tween-80.
The mark [4] stands for this setting: dose: 25.0 mg/kg/injection, schedule: Q01DX009 (ip), vehicle: saline with Tween-80.
[5] abbreviates: dose: 100.0 mg/kg/injection, schedule: Q04DX002 (ip), vehicle: saline with Tween-80.
[6] abbreviates: dose: 200.0 mg/kg/injection, schedule: Q04DX002 (ip), vehicle: saline with Tween-80.
Where [7] appears, read: dose: 60.0 mg/kg/injection, schedule: Q01DX005 (ip), vehicle: saline with Tween-80.
[8] abbreviates: dose: 120.0 mg/kg/injection, schedule: Q01DX005 (ip), vehicle: saline with Tween-80.
[9] abbreviates: dose: 240.0 mg/kg/injection, schedule: Q01DX005 (ip), vehicle: saline with Tween-80.
Where [10] appears, read: dose: 50.0 mg/kg/injection, schedule: Q01DX005 (ip), vehicle: saline with Tween-80.
[11] abbreviates: dose: 100.0 mg/kg/injection, schedule: Q01DX005 (ip), vehicle: saline with Tween-80.
The mark [12] stands for this setting: dose: 50.0 mg/kg/injection, schedule: Q01DX009 (ip), vehicle: Klucel (hydroxypropylcellulose) (HPC).
[13] abbreviates: dose: 100.0 mg/kg/injection, schedule: Q01DX009 (ip), vehicle: Klucel (hydroxypropylcellulose) (HPC).

Consider `[Cl][Sn]([c]1ccccc1)[c]1ccccc1`, for which the T/C by setting is: (dose: 1.8 mg/kg/injection, schedule: Q03HX015 (ip), vehicle: saline) 150 % of control; (dose: 2.7 mg/kg/injection, schedule: Q03HX015 (ip), vehicle: saline) 152 % of control; (dose: 3.12 mg/kg/injection, schedule: Q01DX009 (ip), vehicle: saline) 86 % of control; (dose: 4.0 mg/kg/injection, schedule: Q03HX015 (ip), vehicle: saline) 163 % of control; (dose: 5.3 mg/kg/injection, schedule: Q01DX005 (ip), vehicle: saline) 154 % of control; (dose: 12.0 mg/kg/injection, schedule: Q01DX005 (ip), vehicle: saline) 163 % of control. The T/C is, setting by setting: (dose: 12.5 mg/kg/injection, schedule: Q01DX009 (ip), vehicle: saline) 163 % of control; (dose: 12.5 mg/kg/injection, schedule: Q04DX003 (ip), vehicle: saline) 114 % of control; (dose: 25.0 mg/kg/injection, schedule: Q01DX009 (ip), vehicle: saline) 198 % of control; (dose: 100.0 mg/kg/injection, schedule: Q04DX003 (ip), vehicle: saline) 154 % of control.
Regarding `O=S1(=O)CC(N2CCCCC2)C=C(c2ccccc2)O1` (stereo not given), the T/C under setting [1] was 103 % of control, the T/C under setting [2] is 98 % of control and the T/C under setting [3] is 95 % of control.
The matching figures for `Cc1ccc(NC(=O)Oc2cc(C)c(I)cc2C)cc1Cl`: 112 % of control, 112 % of control and 95 % of control.
Regarding `O=[N+]([O-])/C=C/c1cc(Br)c(O)c(Br)c1`, the T/C runs as follows: (dose: 50.0 mg/kg/injection, schedule: Q01DX009 (ip), vehicle: saline) 96 % of control; (dose: 100.0 mg/kg/injection, schedule: Q01DX009 (ip), vehicle: saline) 115 % of control; (dose: 200.0 mg/kg/injection, schedule: Q01DX009 (ip), vehicle: saline) 96 % of control.
Consider `CC1=CC(O)C(O)C2(C)C1CC1OC(=O)C(OC3OC(CO)C(O)C(O)C3O)C3C(C)C(O)C4(O)OCC13C42` (stereo not given), for which the T/C (dose: 2.13 mg/kg/injection, schedule: Q01DX005 (ip), vehicle: water) was 101 % of control.
Turning to `N=C(N)C(Cl)(Cl)Cl`, the T/C (dose: 12.5 mg/kg/injection, schedule: Q01DX009 (ip), vehicle: saline with Tween-80) was 108 % of control; the T/C under setting [4] is 106 % of control; the T/C under setting [1] is 101 % of control and 106 % of control.
`O=C1c2ccccc2SCC12OC2c1ccc(Cl)cc1` (stereo not given): the T/C by setting is: under setting [5], 95 % of control; under setting [6], 90 % of control.
On to `CC(N)(CCSCP(=O)(O)O)C(=O)O` (stereo not given), for which the T/C by setting is: under setting [7], 99 % of control; under setting [8], 91 % of control.
Take `C/C=C/C1OC(OC)(OC)C1(OC)OC` (stereo not given): the T/C was 100 % of control (dose: 60.0 mg/kg/injection, schedule: Q01DX005 (ip), vehicle: saline); 100 % of control (dose: 120.0 mg/kg/injection, schedule: Q01DX005 (ip), vehicle: saline); 100 % of control (dose: 240.0 mg/kg/injection, schedule: Q01DX005 (ip), vehicle: saline).
For the compound `OCC1CC12c1ccccc1-c1ccccc12` (stereo not given), the T/C under setting [7] was 98 % of control, the T/C under setting [8] was 96 % of control and the T/C under setting [9] is 101 % of control.
Regarding `Cc1ccc(S(=O)(=O)NC(=O)Nc2sc(=S)c3c(c2C#N)CCCC3)cc1`, the T/C is 100 % of control under setting [10] and 103 % of control under setting [11].
As for `COc1ccc(/C=C/C(=O)c2ccccc(=O)c2O)c(OC)c1OC`, the T/C reads like this: (dose: 25.0 mg/kg/injection, schedule: Q01DX005 (ip), vehicle: Klucel (hydroxypropylcellulose) (HPC)) 105 % of control; (dose: 50.0 mg/kg/injection, schedule: Q01DX005 (ip), vehicle: Klucel (hydroxypropylcellulose) (HPC)) 99 % of control; (dose: 100.0 mg/kg/injection, schedule: Q01DX005 (ip), vehicle: Klucel (hydroxypropylcellulose) (HPC)) 109 % of control; (dose: 200.0 mg/kg/injection, schedule: Q01DX005 (ip), vehicle: Klucel (hydroxypropylcellulose) (HPC)) 108 % of control.
On to `CCOC(=O)C(=O)Nc1oc(C)c(C)c1C#N`, for which the T/C was 100 % of control and 107 % of control and 118 % of control (dose: 12.5 mg/kg/injection, schedule: Q01DX009 (ip), vehicle: saline + alcohol); 109 % of control and 116 % of control and 124 % of control (dose: 25.0 mg/kg/injection, schedule: Q01DX009 (ip), vehicle: saline + alcohol); 115 % of control (dose: 25.0 mg/kg/injection, schedule: Q04DX003 (ip), vehicle: saline + alcohol); 106 % of control (dose: 50.0 mg/kg/injection, schedule: Q04DX003 (ip), vehicle: saline + alcohol); 95 % of control (dose: 100.0 mg/kg/injection, schedule: Q01DX001 (ip), vehicle: saline + alcohol); 110 % of control and 93 % of control (dose: 100.0 mg/kg/injection, schedule: Q01DX009 (ip), vehicle: saline + alcohol). The T/C was 112 % of control (dose: 100.0 mg/kg/injection, schedule: Q04DX003 (ip), vehicle: saline + alcohol) and 96 % of control (dose: 200.0 mg/kg/injection, schedule: Q01DX001 (ip), vehicle: saline + alcohol).
`O=[N+]([O-])c1ccc(N2CCCC2)c([N+](=O)[O-])c1`: the T/C was 100 % of control under setting [4], 104 % of control under setting [1], 100 % of control under setting [2] and 100 % of control under setting [3].
On to `COC1=CC(=O)/C(=C(O)/C=C/c2ccccc2)C(=O)C1(C)C`, for which the T/C is, setting by setting: under setting [7], 108 % of control; under setting [8], 115 % of control; under setting [9], 123 % of control.
Take `N#CC(c1ccccc1)C(c1ccccc1)c1cccc2ccccc12` (stereo not given): the T/C was 98 % of control (dose: 6.25 mg/kg/injection, schedule: Q01DX009 (ip), vehicle: suspension in saline); 97 % of control (dose: 12.5 mg/kg/injection, schedule: Q01DX009 (ip), vehicle: suspension in saline); 97 % of control (dose: 25.0 mg/kg/injection, schedule: Q01DX009 (ip), vehicle: suspension in saline); 97 % of control (dose: 50.0 mg/kg/injection, schedule: Q01DX009 (ip), vehicle: suspension in saline); 104 % of control under setting [5]; 101 % of control under setting [6]. Further, the T/C (dose: 400.0 mg/kg/injection, schedule: Q04DX002 (ip), vehicle: saline with Tween-80) is 107 % of control.
For `NC(=Nc1ccccc1)SCCCCCCSC(N)=Nc1ccccc1`, the T/C was 100 % of control (dose: 25.0 mg/kg/injection, schedule: Q01DX009 (ip), vehicle: Klucel (hydroxypropylcellulose) (HPC)); 102 % of control under setting [12]; 100 % of control under setting [13].
For the compound `NC(=S)N/N=C\C(CC(O)CO)=N\NC(N)=S` (stereo not given), the T/C under setting [10] was 101 % of control; the T/C under setting [11] was 101 % of control; the T/C (dose: 200.0 mg/kg/injection, schedule: Q01DX005 (ip), vehicle: saline with Tween-80) was 93 % of control.
Regarding `CCCOc1ccc(-c2nc(-c3ccc(N)cc3)cs2)cc1`, the T/C was 111 % of control under setting [12]; 109 % of control under setting [13]; 109 % of control (dose: 200.0 mg/kg/injection, schedule: Q01DX009 (ip), vehicle: Klucel (hydroxypropylcellulose) (HPC)).
